Results: US20260217701A1, “SELECTIVE BET INHIBITORS AND USES THEREOF” (Tay Therapeutics Limited, priority 2022, published 2026)

Target: T1, BRD4 BD2 (Homo sapiens, UniProt O60885)
T1 construct: HEK293 cells were transfected using NanoLuc-BRD4-BD1 or NanoLuc-BRD4-BD2 fusion vectors
Assay: NanoBRET bromodomain assay, NanoLuc-BRD4-BD2 in HEK293 cells
Format: binding
Settings: nanoBRET assay, given as symbol only; for Selectivity (BD1/BD2): higher number denotes higher selectivity; for BD2: lower number denotes higher potency
Method: Plates were then incubated at 37° C.+5% CO2 incubator for 2 hours.
Fold Selectivity Calculated (IC50 BD1/IC50 BD2).

Selectivity (BD1/BD2)	BD2	SMILES
>>>>	<	Cn1cc(-c2ccccc2)c(-c2cn(C)c(=O)c3[nH]c(-c4cnn(C(F)(F)F)c4)c(F)c23)cc1=O [Compound D, 3-fluoro-6-methyl-4-(1-methyl-2-oxo-5-phenyl-1,2-dihydropyridin-4-yl)-2-(1-(trifluoromethyl)-1H-pyrazol-4-yl)-1,6-dihydro-7H-pyrrolo[2,3-c]pyridin-7-one]
>>>>	<	CSCCn1cc(-c2ccccc2)c(-c2cn(C)c(=O)c3[nH]c(-c4cnn(C(F)(F)F)c4)cc23)cc1=O [Compound C, 6-methyl-4-(1-(2-(methylthio)ethyl)-2-oxo-5-phenyl-1,2-dihydropyridin-4-yl)-2-(1-(trifluoromethyl)-1H-pyrazol-4-yl)-1,6-dihydro-7H-pyrrolo[2,3-c]pyridin-7-one]
